# Test results as given in patent US20090012178A1, “Benzoxazocines and Their Therapeutic Use” (priority 2005, published 2009).
# Read-outs that look alike come from different tables or passages of the source.
# Columns and labels:
# Pharmacokinetic profile = type: in vivo; conditions: compared with nefopam
# Behavioural Despair Test = type: in vivo, mouse; conditions: 30 minutes before the test, * = statistical significance
# Description: Compounds of the invention have been evaluated in the Behavioural Despair Test, a model which detects antidepressant activity.
# The Behavioural Despair Test was conducted according to the method of Porsolt et al., (1977—Arch. Int. Pharmacodyn., 229:327-336). Mice forced to swim in a situation from which they cannot escape rapidly become immobile. Antidepressants decrease the duration of immobility.
# Mice (20-27 g male Rj: NMRI) were individually placed in a cylinder (height=24 cm, diameter=13 cm) containing 10 cm water (22° C.), from which they cannot escape. The mice were placed in the water for 6 minutes and the duration of immobility during the last 4 minutes was measured. All compounds were administered i.p. 30 minutes before the test, and compared with a vehicle control group. Results are given in Table 5 (nt=not tested; *denotes statistical significance achieved).
# 5-HT Transporter = 5-HT Transporter (Homo sapiens, UniProt P31645); test: 5-HT Transporter binding assay (SRI)
# 5-HT Transporter, sequence (P31645 whole entry): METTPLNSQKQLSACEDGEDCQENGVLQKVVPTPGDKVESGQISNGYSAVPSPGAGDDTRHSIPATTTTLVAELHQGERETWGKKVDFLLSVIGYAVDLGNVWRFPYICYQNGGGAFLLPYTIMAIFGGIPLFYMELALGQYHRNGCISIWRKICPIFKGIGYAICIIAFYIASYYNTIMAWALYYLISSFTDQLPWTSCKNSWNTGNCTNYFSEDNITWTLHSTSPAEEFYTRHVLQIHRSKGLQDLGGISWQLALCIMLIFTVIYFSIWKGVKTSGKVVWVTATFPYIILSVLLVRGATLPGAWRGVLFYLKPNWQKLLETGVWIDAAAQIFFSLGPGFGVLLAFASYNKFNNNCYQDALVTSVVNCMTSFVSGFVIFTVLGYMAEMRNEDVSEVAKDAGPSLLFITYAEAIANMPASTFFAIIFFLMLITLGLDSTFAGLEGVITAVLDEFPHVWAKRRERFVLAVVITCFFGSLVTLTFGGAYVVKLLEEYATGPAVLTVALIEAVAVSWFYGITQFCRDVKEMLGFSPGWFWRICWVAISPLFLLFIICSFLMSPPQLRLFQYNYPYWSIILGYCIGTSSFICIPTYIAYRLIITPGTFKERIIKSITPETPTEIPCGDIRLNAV
# Description: (§1) CYP 2D6 inhibition assays were conducted according to the method of Ono et al. (1996—Xenobiotica, 26: 681-693). 5-HT Transporter binding assays were conducted according to the method of Tatsumi et al. (1997—Eur. J. Pharmacol., 340: 249-258). NA Transporter binding assays were conducted according to the method of Pacholczyk et al. (1991—Nature, 350: 350-354).
# [1] = Mouse hotplate model of acute analgesia; type: in vivo; conditions: for Paw Latency (Sec) above control: 60 min before testing, * = statistical significance
# Description: Compounds of the invention have also been evaluated in the mouse hotplate model of acute analgesia. Mice placed on a metallic hot plate will respond by paw licking or by jumping up from the plate (Eddy et al., 1950—J. Pharmacol. Exp. Ther.; 98:121-137). Analgesics increase nociceptive reaction latency.
# Mice (17-23 g male Swiss mice ICO: OF1) were placed on a metallic hot plate maintained at 56±0.2° C. The nociceptive reaction latency, characterized by a licking reflex of the forepaws or by a jumping off the hot plate, was recorded. Plate heat cut-off time was 30 seconds. The test substances and vehicle were orally administered 60 min before testing. Results are given in Table 2 (nt=not tested; *denotes statistical significance achieved).
# [2] = Formalin-induced paw licking in mouse; type: in vivo; conditions: * = statistical significance; for Nociception, Early Phase: licking time 0 to 5 minutes after formalin; for Nociception, Late Phase: licking time 20 to 30 minutes after formalin
# Description: Compounds of the invention have also been evaluated in the formalin-induced paw licking model in mice. Compounds were evaluated for both an early stage response and a late stage response against duloxetine and nefopam as controls.
# Inflammation was induced by subplantar injection of a 5% formalin solution (0.02 ml) into the mouse right hindpaw (20-25 g male Rj: NMRI). Hindpaw licking time was continuously recorded in a blinded fashion between 0 to 5 minutes (early phase) and between 20 to 30 minutes (late phase) after formalin injection (Hunskaar et al., 1985—J. Neurosci. Methods; 14:69-76).
# The test substances and vehicle were orally administered 60 min before formalin injection. Results are given in Table 3 (nt=not tested; *denotes statistical significance achieved).
# [3] = Morphine challenge assay (morphine-induced emesis in ferrets); type: in vivo, ferret; conditions: for % Reduction in no of retches/vomits: 3 mg/kg ip, 60 min before morphine 0.125 mg/Kg s.c., * = statistical significance; for anti-emetic activity in the morphine-induced emesis model (in words): ferrets
# Description: In this respect, compounds of the invention retain the low side-effect potential of nefopam while having greater efficacy and more favourable pharmacokinetic parameters for chronic use.
# Morphine was administered (0.125 mg/Kg s.c.) to albino or fitch male ferrets (0.9-1.7 kg) to induce emesis. Emesis was characterized by rhythmic abdominal contractions which were either associated with the oral expulsion of solid or liquid material from the gastrointestinal tract (ie vomiting) or not associated with the passage of material (i.e. retching movements). The number of highly distinctive abdominal contractions was counted.
# The test substances and vehicle were administered by intraperitoneal injection 60 min before morphine administration. Results are given in Table 4 (*denotes statistical significance achieved).
# cytochrome P450 enzymes = test: Metabolism by cytochrome P450 enzymes; type: in vitro ADME
# CYP 2D6 = CYP 2D6 (Homo sapiens, UniProt P10635); test: CYP 2D6 inhibition, substrate based assay; type: in vitro ADME
# CYP 2D6, sequence (P10635 whole entry): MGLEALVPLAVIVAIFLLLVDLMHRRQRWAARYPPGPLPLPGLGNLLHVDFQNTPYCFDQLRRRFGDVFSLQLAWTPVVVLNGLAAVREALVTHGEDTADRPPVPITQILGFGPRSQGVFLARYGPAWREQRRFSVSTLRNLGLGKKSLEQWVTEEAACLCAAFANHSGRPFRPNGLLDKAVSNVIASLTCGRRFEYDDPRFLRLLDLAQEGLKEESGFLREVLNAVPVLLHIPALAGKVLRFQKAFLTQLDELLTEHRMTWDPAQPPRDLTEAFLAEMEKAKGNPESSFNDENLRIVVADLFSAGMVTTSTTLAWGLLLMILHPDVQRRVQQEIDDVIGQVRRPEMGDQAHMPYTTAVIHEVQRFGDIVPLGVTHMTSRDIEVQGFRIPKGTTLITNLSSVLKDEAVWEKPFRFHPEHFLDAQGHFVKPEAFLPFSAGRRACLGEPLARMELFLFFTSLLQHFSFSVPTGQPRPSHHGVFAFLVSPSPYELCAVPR
# Description: as §1
# NA Transporter = NA Transporter (Homo sapiens, UniProt P23975); test: NA Transporter binding assay (NRI)
# NA Transporter, sequence (P23975 whole entry): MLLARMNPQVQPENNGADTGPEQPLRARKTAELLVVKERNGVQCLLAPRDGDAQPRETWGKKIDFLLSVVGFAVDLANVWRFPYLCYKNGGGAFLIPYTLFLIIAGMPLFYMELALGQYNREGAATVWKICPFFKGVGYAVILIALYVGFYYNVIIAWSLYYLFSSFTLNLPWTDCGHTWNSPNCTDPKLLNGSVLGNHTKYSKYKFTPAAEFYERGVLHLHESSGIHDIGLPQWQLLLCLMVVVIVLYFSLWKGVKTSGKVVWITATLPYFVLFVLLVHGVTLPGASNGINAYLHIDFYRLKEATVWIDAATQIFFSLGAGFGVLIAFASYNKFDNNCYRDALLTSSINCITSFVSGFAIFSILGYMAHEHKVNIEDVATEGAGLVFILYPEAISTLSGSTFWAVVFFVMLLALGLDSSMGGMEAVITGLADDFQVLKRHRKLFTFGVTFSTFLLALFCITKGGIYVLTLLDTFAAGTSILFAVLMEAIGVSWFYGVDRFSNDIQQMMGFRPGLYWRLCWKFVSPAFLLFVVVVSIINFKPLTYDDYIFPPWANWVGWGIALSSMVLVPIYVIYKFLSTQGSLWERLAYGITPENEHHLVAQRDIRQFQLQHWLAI
# Description: as §1
# [4] = read-out: CYP 2D6 inhibition IC50
SMILES,Paw Latency (Sec) above control ([1]; 30 mg/kg po),Paw Latency (Sec) above control ([1]; 60 mg/kg po),"Nociception, Early Phase ([2]; 30 mg/kg po) [%]","Nociception, Late Phase ([2]; 30 mg/kg po)","Nociception, Early Phase ([2]; 60 mg/kg po)","Nociception, Late Phase ([2]; 60 mg/kg po)",% Reduction in no of retches/vomits [3] [%*],IC50 (CYP 2D6) [nM],IC50 (NA Transporter; read-out: IC50 vs NRI) [nM],other results
"COc1cccc(C2OCCN(C)Cc3cc(C#N)ccc32)c1 (single isomer, unassigned) [Example 1]",5 s,7* Sec,−49,−46%,−75%*,−88%*,91,5700,400,pharmacokinetic profile (in words) (Pharmacokinetic profile): greatly improved pharmacokinetic profile over the parent compound nefopam; Duration of Immobility (% change from ctrl) (Behavioural Despair Test; 10 mg/kg ip): −24* %; Duration of Immobility (% change from ctrl) (Behavioural Despair Test; 20 mg/kg ip): −8%; Duration of Immobility (% change from ctrl) (Behavioural Despair Test; 40 mg/kg ip): −61* %; Duration of Immobility (% change from ctrl) (Behavioural Despair Test; 80 mg/kg ip): −85* %; IC50 (5-HT Transporter): 8.9 nM; efficacy in the mouse hot-plate model (in words) [1]: greater efficacy than the racemate; Paw Latency (Sec) above control ([1]; 10 mg/kg po): 9* Sec; anti-emetic activity in the morphine-induced emesis model (in words) [3]: anti-emetic; metabolism by cytochrome P450 enzymes (in words) (cytochrome P450 enzymes): metabolised by a range of cytochrome P450 enzymes
"COc1cccc(C2OCCN(C)Cc3cc(C4CC4)ccc32)c1 (single isomer, unassigned) [Example 3, 8-cyclopropyl-5-methyl-1-(3-methoxy)phenyl-1,3,4,6-tetrahydro-5H-benz[f]-2,5-oxazocine]",6* Sec,9* Sec,−45,−51%,−56%*,−73%*,89,,,IC50 (5-HT Transporter): 5.2 nM; Paw Latency (Sec) above control ([1]; 10 mg/kg po): 3 s; anti-emetic activity in the morphine-induced emesis model (in words) [3]: anti-emetic; IC50 (CYP 2D6; [4]): 1100 nM; IC50 (NA Transporter): 46 nM
CNCC[C@H](Oc1cccc2ccccc12)c1cccs1 [Duloxetine],,,−49,−85%*,,,,,,Duration of Immobility (% change from ctrl) (Behavioural Despair Test; 10 mg/kg ip): −6%; Duration of Immobility (% change from ctrl) (Behavioural Despair Test; 20 mg/kg ip): −9%; Duration of Immobility (% change from ctrl) (Behavioural Despair Test; 40 mg/kg ip): −65* %; Duration of Immobility (% change from ctrl) (Behavioural Despair Test; 80 mg/kg ip): −100* %
"COc1cccc([C@H]2OCCN(C)Cc3cc(C#N)ccc32)c1 [Example 2, (1R)-8-cyano-5-methyl-1-(3-methoxy)phenyl-1,3,4,6-tetrahydro-5H-benz[f]-2,5-oxazocine]",6 s,1 s,,,,,,9600,3800,IC50 (5-HT Transporter; read-out: IC50 vs SRI): 120 nM
"COc1cccc(C2OCCN(C)Cc3cc(C4CC4)ccc32)c1 (stereo not shown) [Example 4, 8-cyclopropyl-5-methyl-1-(3-methoxy)phenyl-1,3,4,6-tetrahydro-5H-benz[f]-2,5-oxazocine]",5 s,5 s,,,,,,> 10000,> 1000,IC50 (5-HT Transporter; read-out: IC50 vs SRI): 21 nM; IC50 (CYP 2D6; [4]): 10000 nM; IC50 (NA Transporter; read-out: IC50 as NRI): > 1000 nM
CN(C)CCCN1c2ccccc2CCc2ccccc21 [Imipramine],,,,,,,,,,Duration of Immobility (% change from ctrl) (Behavioural Despair Test; 32 mg/kg ip): −62* %
"CN1CCOC(c2ccccc2)c2ccccc2C1 (stereo not shown) [Nefopam, reference compound]",,,,,−46%,−26%,96,,,"Nociception, Early Phase ([2]; 100 mg/kg po): −76%*; Nociception, Late Phase ([2]; 100 mg/kg po): −68%*"
